In patent US5525627A, “Esters of acyl carnitines with long-chain aliphatic alcohols and pharmaceutical compositions containing same having antimycotic activity” (Sigma-Tau Industrie Farmaceutiche Riunite S.p.A., priority 1992, dated 1996):

Assays:
[1] = system: Fusarium sp. (ISS 1); experiment: MIC for filamentous fungi; format: cell-based; conditions: read-out: Minimal Inhibitory Concentration (MIC)
Procedure, shortened: (§1)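 Inoculum was conidia from 72-hour Sabouraud agar cultures, washed off with Sabouraud medium plus Tween 80 (one drop per 10 ml) and used at 5.0×10^4 CFU/ml. The procedure followed the yeast-like fungi method, and MIC and MFC were read as reported previously.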

[2] = system: Aspergillus fumigatus (1/A); experiment: MIC for filamentous fungi; format: cell-based; conditions: read-out: Minimal Inhibitory Concentration (MIC)
Procedure, shortened: as §1

[3] = system: Aspergillus niger (ATCC 16404); experiment: MIC for filamentous fungi; format: cell-based; conditions: ATCC16404, read-out: Minimal Inhibitory Concentration (MIC)
Procedure, shortened: as §1

[4] = system: Penicillium sp. (1302); experiment: MIC for filamentous fungi; format: cell-based; conditions: read-out: Minimal Inhibitory Concentration (MIC)
Procedure, shortened: as §1

[5] = system: Aspergillus fumigatus (C/1); experiment: MIC for filamentous fungi; format: cell-based; conditions: read-out: Minimal Inhibitory Concentration (MIC)
Procedure, shortened: as §1

[6] = system: Aspergillus fumigatus (ATCC 28212); experiment: MIC for filamentous fungi; format: cell-based; conditions: ATCC28212, read-out: Minimal Inhibitory Concentration (MIC)
Procedure, shortened: as §1

[7] = system: dermatophytic fungi; experiment: MIC / MFC for dermatophytic fungi, all strains; format: cell-based, Trichophyton, Microsporum, Epidermophyton; conditions: versus susceptible strains
Protocol: (§2) The following strains were used: Trichophyton menthagrophytes ATCC 9533, Trichophyton rubrum IHEM 4274, Microsporum canis IHEM 3522, Epydermophyton floccosum IHEM 3495. The tested substances were: ST 722, ST 1033, ST 1037, ST 1050, ST 1051, ST 1052,. ST 1053.
(§3) The assay was performed following the same procedure described for the yeasts, by using 7-day fungi cultures grown at 30° C. in Potato Dextrose agar, and harvested with Sabouraud broth and Tween 80 (0.5%).
(§4) After washing with Yeast Nitrogen Base, supplemented with asparagine and glucose (as carbon source), the fungal suspension was fragmented using a tissue grinder until the largest clumps or aggregates were undetectable within the grinder. This fungal suspension was then appropriately diluted in YNB to yield a concentration of 2.0×10^5 infective particles/ml (small mycelium fragments, micro-and macroaleuriospores).
(§5) Volumes of 100 μl both of the fungal suspensions and substance solutions, two-fold serially diluted in assay medium, were distributed into each well of a microtiter plate (96 wells, round bottom), which was incubated at 35° C. for 96 hours.

[8] = system: peritoneal macrophages; experiment: Test 4: peritoneal macrophage number in mice; format: in vivo, mice (male B6 D2 F1); conditions: 100 mg/kg/day oral, 5 consecutive days
Protocol: Test 4: Evaluation of the effect of repeated oral administrations of ST 722 on the peritoneal macrophage number in mice.
(§6) Male B6 D2 F1 mice (C. River) aged 10 weeks (6 animals each group) were orally treated with the substance ST 722 at the dose of 100 mg/kg/day for 5 consecutive days. Twenty-four hours after the last administration, the animals were sacrificed, the peritoneal exudate cells (PEC) collected and the macrophage number determined.

[9] = system: spleen, thymus and splenocytes; experiment: Test 3: body, spleen and thymus weight and splenocyte concentration; format: in vivo, mice (male B6 D2 F1); conditions: 100 mg/kg/day oral, 5 consecutive days
Protocol: Test 3: Evaluation of the effect of repeated oral administrations of ST 722 on the body, spleen and thymus weight, and on the splenocyte concentration in mice.
as §6, with “(5” for “(6”, “organs removed and weighed,” for “peritoneal exudate cells (PEC) collected”, “splenocyte” for “macrophage”

[10] = Test 1: body and lymphoid organ weight in SRBC immunized mice; format: in vivo, mice (male B6 D2F1); conditions: 100 mg/kg/day per os, day -2 through day +2; x ± S.E.
Protocol: Test 1: Evaluation of the "in vitro-ex vivo" effect of repeated oral administrations of ST 722 on the primary antibody production (Jerne test) in the spleen of SRBC (Sheep Red Blood Cells) immunized mice.
Male B6 D2F1 mice (C. River) aged 8 weeks (6 animals each group) were utilized.
The substance (ST 722) was administered per os at the dose of 100 mg/kg/day from day -2 through day +2 (immunization at day 0). The animals were immunized by intraperitoneal route with a concentration of 1.0×10^8 cells/mouse in 0.2 ml of sterile saline.
Five days later, spleens to be submitted to teasing process were removed from the animals sacrificed by cervical dislocation. After standardization at 1.0×10^7 cells/ml. the splenocytes (0.1 ml) were mixed with warm agar-Hank's (2 ml) and 10% SRBC in PBS (0.2 ml) and seeded in Petri dishes (samples tested in triplicates) and incubated at 37° C. for 60 min.

[11] = system: Microsporum canis (IHEM 3522); experiment: MIC for dermatophytic fungi; format: cell-based; conditions: 35° C., 96 hours, read-out: Minimal Inhibitory Concentration (MIC)
Protocol: as §2, §3, §4, §5

[12] = system: Trichophyton menthagrophites (ATCC 9533); experiment: MIC for dermatophytic fungi; format: cell-based; conditions: ATCC9533, 35° C., 96 hours, read-out: Minimal Inhibitory Concentration (MIC)
Protocol: as §2, §3, §4, §5

[13] = system: Epidermophyton floccosum (IHEM 3495); experiment: MIC for dermatophytic fungi; format: cell-based; conditions: 35° C., 96 hours, read-out: Minimal Inhibitory Concentration (MIC)
Protocol: as §2, §3, §4, §5

[14] = system: Trichophyton rubrum (IHEM 4274); experiment: MIC for dermatophytic fungi; format: cell-based; conditions: 35° C., 96 hours, read-out: Minimal Inhibitory Concentration (MIC)
Protocol: as §2, §3, §4, §5

In the case of `CCCCCCCCCCCOC(=O)C[C@H](C[N+](C)(C)C)OC(=O)CC(C)C` [ST 722, isovaleryl-L-carnitine undecyl ester chloride], the MIC [1] is reported as 6.25 µg/mL, the MIC [2] is reported as 12.5 µg/mL and the MIC [3] is reported as 12.5 µg/mL. For the same molecule, the MIC [4] was 12.5 µg/mL, the MIC [5] was 12.5 µg/mL and the MIC [6] was 12.5 µg/mL. For the same molecule, the MIC [7] was 28.1 µg/mL, the “toxic effect in PEC macrophage population” value [8] was “No toxic effect has been observed” and the “PEC Mo” value ([8]; 6 pooled samples) was 63%. For the same molecule, the Body weight ([8]; ± S.E., 6 animals) was 28.13 ± 1.30 g, the “increase in the peritoneal macrophages number” value ([8]; versus control) was “about 60%” and the “specific immunotoxic effects on the considered parameters” value [9] was “lack of specific immunotoxic effects”. For the same molecule, the Body weight ([9]; x ± S.E.) was 26.50 ± 0.53 g, the Spleen weight ([9]; x ± S.E.) was 73.25 ± 3.84 mg and the Thymus weight ([9]; x ± S.E.) was 38.80 ± 3.01 mg. For the same molecule, the Body weight [10] was 25.12 ± 0.77 g, the Spleen weight [10] was 94.33 ± 4.12 mg and the Thymus weight [10] was 59.50 ± 3.62 mg. The MIC [11] was 25 µg/mL, the MIC [12] was 25 µg/mL and the MIC [13] was 50 µg/mL. It also gave an MIC [14] of 12.5 µg/mL.
